Laboratory results reported in US20180201594A1, “Compound pac-1 or salt thereof and pharmaceutical composition comprising same” (priority 2015, published 2018).
In brackets after ≈: the same amount, converted by molar mass.

What was measured:
HUVEC = HUVEC tubule formation assay; format: cell-based
Procedure: Tubule formation assay: the matrigel was thawed at 4° C. overnight, which was 1:1 diluted with serum-free ECM medium and coated onto 96-well plates. The diluted matrigel was sucked by precooled pipette gun tip, which was added into pre-cooled 96-well plates, with 50 μL per well. The matrigel was placed on ice for 5 min to make the matrigel surface level, and then the 96-well plates were put into a cell incubator at 37° C. for 1 h to cause gel coagulation. Trypsinize cells, the cells were counted and diluted with ECM medium. The cell density was adjusted to […], and the cells were seeded into coated 96-well plates with 100 μL per well. According to the MTT results, the ZYS-1 solution at different concentrations were formulated. 100 μL of the solutions were taken and added into the cell-seeded wells to make the final concentration at 2, 1, 0.5 μM. At the same time, the positive control was set as recombinant human endostatin (Endostar) and the negative control as without drugs but medium only. Each concentration of the experimental groups and the control groups all were set three replicates, which were placed and cultured in the incubator. After culturing 18 h, the culture was observed under microscope and taken the pictures to record the circumference, area of the generated tubes and the number of nodes as indicators for the formation of tubule. […]

HGC-27 cells = assay: Three-dimensional migration (Transwell assay), HGC-27; format: cell-based; details: for Cell number (transmembrane cells): 24 h, n = 9
Procedure: Starved cells were digested and collected, which were suspended in serum-free medium. The cell intensity was adjusted into 3×10^5 s cells/mL. 100 μL of the cell suspension was added into the upper chamber and 700 μL of medium with 10% serum to the lower chamber per well. According to the experimental design, 50 μL serum-free medium was added per well for the control group, 50 μL of drug-containing serum-free medium was added for the administration groups. They were continued to be cultured in the incubator for another 24 h. The upper chamber was taken, with methanol fixation for 30 min, dyed with Giemsa stain for 30 min, rinsed with clean water twice. The cells on the bottom membrane surface of the upper chamber were carefully wiped off with a wet cotton swab, dried in the air. With the bottom up, they were transferred onto glass slide and sealed with neutral gum. Under the microscope, nine random fields were taken and the transmembrane cells therein were counted. The average values were statistically calculated.

[1] = Solubility comparison of ZYS-1 and PAC-1 needle crystal (HPLC); format: physicochemical; details: room temperature
Procedure: The appropriate amounts of ZYS-1 and PAC-1 needle crystal were dissolved into the appropriate amount of methanol, absolute ethanol, 95% ethanol, acetonitrile, ethyl ether, ethyl acetate, propanol, acetone, respectively, and sonicated for 1 hour, then left at room temperature for 24 hours to obtain the oversaturated solution. After centrifugation at 4000 r/min for 5 min, the supernatant was diluted appropriately and filtered through a 0.45 μm needle filter. The concentration was determined by HPLC and the solubility was calculated.

Caspase-3 = Caspase-3 protein expression in HGC-27 cells (immunofluorescence); format: cell-based; details: n = 6
Procedure: The sterilized cell transfer membrane was taken and placed into a 24-well plate, which was seeded with 1 mL (1×10^5 cells/mL) cell suspension, and cultured for 24 h. Drug-containing medium was added, The negative control groups and administration groups were set, with the experimental groups intervened for 24-48 h. The plate was washed with PBS, and fixed with 4% paraformaldehyde for 15 min. It was treated with 0.1% TritonX-100, and washed with PBS, blocked with 1:10 diluted normal serum blocking solution for 15 min. The plate was added 1:100 diluted primary antibody, placed at 4° C. overnight. The plate was washed with PBS, to which 1:100 diluted secondary antibodies was added and incubated at room temperature for 30 min. The plate was washed with PBS, to which 1:100 diluted SABC-FITC was added, and re-incubated at room temperature for additional 30 min. The unbound FITC was washed with PBS. We observed and taken pictures under fluorescence microscope, and analyzed the fluorescence intensity by Bioflux Montage software. 6 fields were selected randomly under microscope for each group and the integral optical density value of cells was calculated.

[2] = In vivo pharmacokinetic comparison in rats
Procedure: Twelve male Wistar rats were randomly divided into ZYS-1 group and PAC-1 group. These rats were fasted for 12 hours before administration, and fed water freely. After ZYS-1 and PAC-1 needle crystal were given at the dose of 60 mg/Kg, 0.5 mL orbital blood was collected at 0, 5, 20, 30, 45, 60, 120, 180, 240, 360, 480, 720 mins, centrifuged at 5000 r/min for 5 min. 200 μL plasma was taken. The plasma was added 3 mL acetone and vortexed for 1 min. After centrifuging at 15000 r/min for 5 min, the supernatant was collected and dried under nitrogen at 37° C., to which 200 μL acetonitrile was added to be reconstituted. After sonication for 10 min, the mixture was vortexed for 1 min, and filtered through 0.45 microporous filter membrane. The filtrate was tested by HPLC, and the plasma concentration at each time point was calculated.

[3] = Homo sapiens, HGC-27, 24 h, read-out: Inhibition Rate
[4] = male Wistar rats, 60 mg/Kg, n = 6

**Q.** What does the source list for C=CCc1cccc(/C=N/NC(=O)CN2CCN(Cc3ccccc3)CC2)c1O [ZYS-1, 1-Piperazineacetic acid, 4-(phenylmethyl)-2-[[2-hydroxy-3-(2-propen-1-yl)phenyl]methylene]]?
**A.** inhibition of tubule formation compared with positive control 2.5 μg/mL Endostar (HUVEC; 2 μM ZYS-1 group): similar; effect on formation of endothelial cell tubules induced in vitro (HUVEC; 2, 1, 0.5 μM, 18 h): strong inhibitory effect; Cell number (transmembrane cells) (HGC-27 cells; 2 μM): 33.00 ± 10.00; Cell number (transmembrane cells) (HGC-27 cells; 4 μM): 26.30 ± 13.37; Cell number (transmembrane cells) (HGC-27 cells; 8 μM): 22.44 ± 9.82; inhibition at 2 µM (HGC-27 cells; [3]): 24.6%; inhibition at 4 µM (HGC-27 cells; [3]): 39.9%; inhibition at 8 µM (HGC-27 cells; [3]): 48.7%; Solubility ([1]; 95% ethanol): 18.51 mg/mL (≈ 47.2 mM); Solubility ([1]; Absolute ethanol): 23.53 mg/mL (≈ 59.9 mM); Solubility ([1]; Acetone): 128.97 mg/mL (≈ 329 mM); Solubility ([1]; Acetonitrile): 28.74 mg/mL (≈ 73.2 mM); Solubility ([1]; Chloroform): 344.73 mg/mL (≈ 878 mM); Solubility ([1]; Diethyl ether): 6.31 mg/mL (≈ 16.1 mM); Solubility ([1]; Ethyl acetate): 40.08 mg/mL (≈ 102 mM); Solubility ([1]; Methanol): 35.15 mg/mL (≈ 89.6 mM); Solubility ([1]; Propanol): 25.55 mg/mL (≈ 65.1 mM); Caspase-3 protein expression (integral optical density value) (Caspase-3; 4 μM): 37.26 ± 0.39; Caspase-3 protein expression (integral optical density value) (Caspase-3; 8 μM): 39.36 ± 1.20; MRT(0-∞) [2, 4]: 420.4914 ± 271.8423 h; T½ka [2, 4]: 22.9129 ± 6.3243 h; T½α [2, 4]: 209.5239 ± 129.5666 h; V/F [2, 4]: 0.0308 ± 0.0167 L; ka [2, 4]: 0.0324 ± 0.0098 h⁻¹; ke [2, 4]: 0.0048 ± 0.0033 h⁻¹; lagtime [2, 4]: 4.6861 ± 5.2184 h; AUC(0-inf) ([2]; male, Wistar, rat, plasma, 60 mg/kg, n = 6): 724 ± 207 µg·h/mL; AUC ([2]; male, Wistar, rat, plasma, 60 mg/kg, n = 6, read-out: AUC(0-tn)): 389 ± 136 µg·h/mL; Cmax ([2]; male, Wistar, rat, plasma, 60 mg/kg, n = 6, read-out: Cmax): 2190 ± 127 ng/mL; MRT ([2]; male, Wistar, rat, plasma, 60 mg/kg, n = 6, read-out: MRT(0-tn)): 167 ± 51.5 h; Tmax ([2]; male, Wistar, rat, plasma, 60 mg/kg, n = 6, read-out: Tmax): 65 ± 9.44 h
